Assay [1] deals with HAP1 MTAP-deleted cell line. The assay is described as follows: SDMA in-cell western assay, HAP1 MTAP-deleted. It counts as cell-based. The following applies: for IC50: Homo sapiens, HAP1, SDMA in-cell western, HAP1 MTAP-deleted, read-out: HAP1 MTAP deleted IC50; for MTAP intact/deleted ratio: IC50 ratio HAP1 MTAP-intact / HAP1 MTAP-deleted, SDMA in-cell western. Summed up:
(§1)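 Compounds were tested in HAP1 cells differing only in MTAP status (endogenous expression versus null). Cellular SDMA levels were then measured by in-cell western, giving an IC50 in each background.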

In assay [2] the test system is HAP1 MTAP-deleted cell line. The assay is described as follows: Viability assay, MTAP-deleted cell line. Conditions: Homo sapiens, HAP1, viability assay, MTAP-deleted cell line; read-out: HAP1 MTAP deleted viability. It counts as cell-based. From the text: Table 1 additionally indicates IC50 values in a viability assay for the MTAP-deleted cell line (column 10), indicating the effect of treatment with compound on cell survival.

Assay [3] relates to HAP1 MTAP-intact cell line. Put plainly: SDMA in-cell western assay, HAP1 MTAP-intact. Conditions: Homo sapiens, HAP1, SDMA in-cell western, HAP1 MTAP-intact; read-out: MTAP HAP1 intact IC50. Format: cell-based. Summed up: as §1
Assay [4] addresses T1, PRMT5 (Homo sapiens, UniProt O14744).
T1 construct: purchased Viva (custom protein)
The assay is described as follows: PRMT5 biochemical IC50 assay with MTA as cofactor. Conditions: PRMT5, MTA as cofactor; read-out: MTA IC50.

The target in assay [5] is T1, PRMT5. Put plainly: PRMT5 biochemical IC50 assay with SAM as cofactor. The following applies: PRMT5, SAM as cofactor; read-out: SAM IC50.
The target in assay [6] is T1, PRMT5. Put plainly: PRMT5 biochemical IC50 assay with no cofactor. Conditions: PRMT5, no cofactor; read-out: No Cofactor/rel IC50. The source says: Table 1 indicates IC50 values (μM) against PRMT5 for exemplary compounds in the presence of SAM as cofactor, with no cofactor, and with MTA as cofactor, respectively (columns 4-6). […] Ki values can be calculated from the IC50 values as described in the Examples section. As detailed in the Examples section, for the assay performed in the presence of SAM, IC50=Ki×1.5 (Ki=IC50/1.5).

A value given as a limit tells only on which side of the number the result lay.

T1 sequence (O14744 whole entry): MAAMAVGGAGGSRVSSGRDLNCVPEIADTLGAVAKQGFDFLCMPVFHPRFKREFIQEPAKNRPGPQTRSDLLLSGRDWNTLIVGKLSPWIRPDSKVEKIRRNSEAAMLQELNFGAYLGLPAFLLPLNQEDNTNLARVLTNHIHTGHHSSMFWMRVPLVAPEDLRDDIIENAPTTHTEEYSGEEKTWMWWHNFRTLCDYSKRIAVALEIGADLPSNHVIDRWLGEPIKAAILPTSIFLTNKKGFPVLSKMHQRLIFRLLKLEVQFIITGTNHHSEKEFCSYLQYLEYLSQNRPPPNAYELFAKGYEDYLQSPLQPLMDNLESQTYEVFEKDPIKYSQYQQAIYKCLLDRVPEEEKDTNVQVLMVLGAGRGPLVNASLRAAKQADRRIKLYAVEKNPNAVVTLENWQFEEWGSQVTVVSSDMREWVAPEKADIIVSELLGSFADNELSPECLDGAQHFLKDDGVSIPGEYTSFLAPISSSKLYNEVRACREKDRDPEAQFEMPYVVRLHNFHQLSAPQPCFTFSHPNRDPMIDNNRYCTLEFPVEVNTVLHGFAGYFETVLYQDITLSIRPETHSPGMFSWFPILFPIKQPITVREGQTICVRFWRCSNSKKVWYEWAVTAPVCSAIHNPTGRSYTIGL
T1 sequence (Q9BQA1 whole entry partner): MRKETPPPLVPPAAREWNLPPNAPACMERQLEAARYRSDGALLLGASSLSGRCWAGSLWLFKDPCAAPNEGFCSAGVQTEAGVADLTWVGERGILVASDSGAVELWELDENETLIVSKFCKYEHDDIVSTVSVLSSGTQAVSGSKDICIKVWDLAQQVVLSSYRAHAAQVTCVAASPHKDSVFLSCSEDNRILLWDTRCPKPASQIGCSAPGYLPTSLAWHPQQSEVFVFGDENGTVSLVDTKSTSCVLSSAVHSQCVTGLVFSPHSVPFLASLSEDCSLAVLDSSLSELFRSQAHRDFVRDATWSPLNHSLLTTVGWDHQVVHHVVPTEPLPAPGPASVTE

For `C[C@@H]1CC[C@@H](c2ccnc(C(F)(F)F)c2)N(C(=O)C(=O)Nc2cncc(C(N)=O)c2)C1` (racemic) [Compound 221, rac-5-{2-[(2R,5S)-5-Methyl-2-[2-(trifluoromethyl)pyridin-4-yl]piperidin-1-yl]-2-oxoacetamido}pyridine-3-carboxamide], the IC50 in assay [1] was 100 to 1000 nM; in assay [2] it was greater than 10000 nM; in assay [3] it was greater than 1000 nM; in assay [4], 50 to 500 nM; in assay [5] it was 50 to 500 nM; in assay [6], 50 to 500 nM. In assay [1], the MTAP intact/deleted ratio entry is reported as “A (an IC50 ratio greater than or equal to 10 fold)”.
With `COc1cc([C@@H]2CC[C@@H](C)CN2C(=O)C(=O)Nc2cncc(C(N)=O)c2)ccc1F` (racemic) [Compound 222, rac-5-{2-[(2R,5S)-2-(4-Fluoro-3-methoxyphenyl)-5-methylpiperidin-1-yl]-2-oxoacetamido}pyridine-3-carboxamide], the IC50 in assay [1] is 100 to 1000 nM; in assay [2], 1000 to 10000 nM; in assay [3] it was greater than 1000 nM; in assay [4], less than 50 nM; in assay [5], 50 to 500 nM; in assay [6], 50 to 500 nM. In assay [1], the MTAP intact/deleted ratio result was “A (an IC50 ratio greater than or equal to 10 fold)”.
Regarding `COc1cc([C@@H]2CC[C@@H](C)CN2C(=O)C(=O)Nc2cncc(C(N)=O)c2)cnc1C(F)(F)F` (racemic) [Compound 223, rac-5-{2-[(2R,5S)-2-[5-Methoxy-6-(trifluoromethyl)pyridin-3-yl]-5-methylpiperidin-1-yl]-2-oxoacetamido}pyridine-3-carboxamide], the IC50 is greater than 1000 nM in assay [1]; greater than 10000 nM in assay [2]; greater than 1000 nM in assay [3]; 50 to 500 nM in assay [4]; greater than 500 nM in assay [5]; greater than 500 nM in assay [6]. For the same compound, the MTAP intact/deleted ratio result in assay [1] is on record as “C (an IC50 ratio of less than 3 fold)”.
As to `C[C@@H]1CC[C@@H](c2ccc(N)nc2)N(C(=O)C(=O)Nc2cncc(C(N)=O)c2)C1` (racemic) [Compound 224, rac-5-{2-[(2R,5S)-2-(6-Aminopyridin-3-yl)-5-methylpiperidin-1-yl]-2-oxoacetamido}pyridine-3-carboxamide], the IC50 in assay [1] was less than 100 nM; in assay [2] it was 1000 to 10000 nM; in assay [3], greater than 1000 nM; in assay [4], less than 50 nM; in assay [5], 50 to 500 nM; in assay [6], 50 to 500 nM. For the same compound, the MTAP intact/deleted ratio result in assay [1] is given as “A (an IC50 ratio greater than or equal to 10 fold)”.
In the case of `COc1cc([C@@H]2CC[C@@H](C)CN2C(=O)C(=O)Nc2cncc(C(N)=O)c2)ccn1` (racemic) [Compound 225, rac-5-{2-[(2R,5S)-2-(2-Methoxypyridin-4-yl)-5-methylpiperidin-1-yl]-2-oxoacetamido}pyridine-3-carboxamide], the IC50 was less than 100 nM in assay [1]; 1000 to 10000 nM in assay [2]; greater than 1000 nM in assay [3]; 50 to 500 nM in assay [4]; 50 to 500 nM in assay [5]; 50 to 500 nM in assay [6]. The MTAP intact/deleted ratio result in assay [1] is on record as “A (an IC50 ratio greater than or equal to 10 fold)”.
Turning to `C[C@@H]1CC[C@@H](c2cncc(-n3cccn3)c2)N(C(=O)C(=O)Nc2cncc(C(N)=O)c2)C1` (racemic) [Compound 226, rac-5-{2-[(2R,5S)-5-Methyl-2-[5-(1H-pyrazol-1-yl)pyridin-3-yl]piperidin-1-yl]-2-oxoacetamido}pyridine-3-carboxamide], the IC50 in assay [1] is greater than 1000 nM; in assay [2] it was greater than 10000 nM; in assay [3], greater than 1000 nM; in assay [4], 50 to 500 nM; in assay [5], 50 to 500 nM; in assay [6], greater than 500 nM. For the same compound, in assay [1], the MTAP intact/deleted ratio result is “C (an IC50 ratio of less than 3 fold)”.

For the origin of these results see patent US11999727B2 (Tango Therapeutics, Inc., priority 2020, dated 2024).
